In US20120022142A1, “RNA Interference Mediated Inhibition of Signal Transducer and Activator of Transcription 1 (STAT1) Gene Expression Using Short Interfering Nucleic Acid (siNA)” (Merck Sharp & Dohme Corp., priority 2009, published 2012):
[invAb] = inverted abasic unit; m = 2'-O-methyl; r = 2'-OH (RNA); f = 2'-fluoro

Tested on: TLR3
Assay: TLR3 mediated immunostimulation (OAS1 mRNA increase) in NHBE cells
Type: cell-based, human
Conditions: % increase in OAS1 mRNA, 0.01-100 nM siNA, n = 3 donors
Method: NHBE cell were treated as describe above in Example 2 and used for the measurement of endosomal TLR3 mediated immunostimulation, with the inclusion of polyI:C as a positive control for OAS1 mRNA upregulation. For the measurement of membrane bound TLR3 mediated immunostimulation, the NHBE cells were cultured at 1200 cells/per 96 well and siNAs administered in PBS in the absence of a delivery vehicle at (100 nM, 30 nM, 10 nM, 3 nM, 1 nM, 0.3 nM, 0.1 nM, 0.03 nM, 0.01 nM).
Cell surface TLR3 mediated immunostimulation responses were measured by recording the % increase in OAS1 mRNA levels when the NHBE cells were treated with the siNAs in the absence of a delivery vehicle. (% increase in OAS1 mRNA levels relative to the PBS dilutant).
To determine immunostimulation TLR3 mediated % increase in OAS1(immunostimulatory biomarker) mRNA levels, a nine point dose response was measured using 0.01-100 nM concentration of siNA 25368-DC and siNA 25372-DC.
Endosomal TLR3 mediated immuno stimulation was measured by recording the % increase in OAS1 mRNA levels when the NHBE cells were transfected with the siNAs. (% increase in OAS1 mRNA levels relative to the transfection agent control). The TLR3 agonist Poly I:C is used as a positive control for OAS1 mRNA induction.

Substance	Immunostimulation TLR3 mediated OAS1
25368-DC: STAT1 siNA duplex, human target site 782; modified strands SEQ ID NO: 73 and 74 (chain 1 GUAAAGUCAGAAAUGUGAATT; chain 2 UUCACAUUUCUGACUUUACUU; chain 1: DNA at AGT, 2'-fluoro at CU, [invAb] at 5' end, 3' end, backbone not given here; chain 2: sugars from the 5' end rrrmfmfffffmmffffmfmm, backbone not given here)	No significant effect up to 100 nM
25372-DC: STAT1 siNA duplex, human target site 968; modified strands SEQ ID NO: 81 and 82 (chain 1 UUGACAAUAAGAGAAAGGATT; chain 2 UCCUUUCUCUUAUUGUCAAUU; chain 1: DNA at AGT, 2'-fluoro at CU, [invAb] at 5' end, 3' end, backbone not given here; chain 2: sugars from the 5' end rrrffffffffmffmffmmmm, backbone not given here)	No significant effect up to 100 nM
